From US9050341B2, “Methods of treating drug resistant and other tumors by administering 6,7-dialkoxy quinazoline derivatives” (NATCO PHARMA LIMITED, priority 2009, dated 2015) come the findings set out here.

For one data set, the target named is T1, CDK2 (Homo sapiens, UniProt P24941).
T1 construct: host or cells: T7 phage in E. coli (BL21-derived)
Briefly: KinomeScan kinase profiling. Type of data set: binding.

In a further data set the target is T2, GSK3B (Homo sapiens, UniProt P49841).
T2 construct: host or cells: E. coli host derived from BL21, infected with T7 phage
Briefly: KinomeScan kinase profiling. In kind it is binding. From the text:
(§1) The kinases were ABL1(F317L), ABL1(H396P), ABL1(Q252H), ABL1(Y253F), ADCK3, ADCK4, ALK, ARK5, AXL, BLK, BRSK2, CDK7, CIT, CLK4, CSNK1D, CSNK1E, DAPK1, DAPK3, DCAMKL3, DMPK, EGFR, EGFR(E746-A750DEL), EGFR(G719C), EGFR(G719S), EGFR(L747-E749DEL, A750P), EGFR(L747-S752 DEL, P753S), EGFR(L747-T751DEL, Sin), EGFR(L858R), EGFR(L861Q), EGFR(S752-I759DEL), EPHA5, EPHA6, ERBB2, ERBB4, ERK3, ERK4, FGR, FLT3(D835H), FLT3(D835Y), FLT3(ITD), FLT3(N841 I), FRK, GAK, GCN2(KIN.DOM.2, S808G), HCK, IRAK3, JAK1(KIN.DOM.1), KIT, KIT(D816V), KIT(V559D), KIT(V559D,T670I), LCK, LOK, LTK, LYN, MAP3K3, MAP4K4, MAP4K5, MET, MINK, MKNK1, MKNK2, MST4, MYLK2, PDGFRB, PIM3, PKN2, PRKD1, PRKD2, PRKD3, PRKG1, RIPK2, RPS6KA4(KIN.DOM.2), SIK2, SLK, SNARK, SRC, STK36, TNIK, TNNI3K, TYK2(KIN.DOM.2).
(§2) Kinase assays: Assays were performed as described in Fabian et al. (2005) Nature Biotechnology, vol. 23, p. 329. Kinase-tagged T7 phage strains were grown in parallel in 24 or 96-well blocks in an E. coli host derived from the BL21 strain. E. coli were grown to log-phase and infected with T7 phage from a frozen stock (multiplicity of infection ˜0.1) and incubated with shaking at 32° C. until lysis (˜90 minutes). The lysates were centrifuged and filtered to remove cell debris. […] The liganded beads were blocked with excess biotin and washed with blocking buffer (SeaBlock (Pierce), 1% BSA, 0.05% Tween 20, 1 mM DTT) to remove unbound ligand and to reduce non-specific phage binding.
(§3) Test compounds were prepared as 40× stocks in DMSO and diluted into the aqueous environment. 2.5% DMSO was added to control assays lacking a test compound. All reactions were performed in polystyrene 96-well plates that had been pretreated with blocking buffer in a final volume of 0.04 ml. […] The phage titer in the eluates was measured by quantitative PCR.

The target in a further data set is T3, TLK1 (Homo sapiens, UniProt Q9UKI8).
T3 construct: purchased Ambit Biosciences Corp (KinomeScan); host or cells: E. coli host derived from the BL21 strain (T7 phage lysate)
T3 sequence (Q9UKI8 whole entry): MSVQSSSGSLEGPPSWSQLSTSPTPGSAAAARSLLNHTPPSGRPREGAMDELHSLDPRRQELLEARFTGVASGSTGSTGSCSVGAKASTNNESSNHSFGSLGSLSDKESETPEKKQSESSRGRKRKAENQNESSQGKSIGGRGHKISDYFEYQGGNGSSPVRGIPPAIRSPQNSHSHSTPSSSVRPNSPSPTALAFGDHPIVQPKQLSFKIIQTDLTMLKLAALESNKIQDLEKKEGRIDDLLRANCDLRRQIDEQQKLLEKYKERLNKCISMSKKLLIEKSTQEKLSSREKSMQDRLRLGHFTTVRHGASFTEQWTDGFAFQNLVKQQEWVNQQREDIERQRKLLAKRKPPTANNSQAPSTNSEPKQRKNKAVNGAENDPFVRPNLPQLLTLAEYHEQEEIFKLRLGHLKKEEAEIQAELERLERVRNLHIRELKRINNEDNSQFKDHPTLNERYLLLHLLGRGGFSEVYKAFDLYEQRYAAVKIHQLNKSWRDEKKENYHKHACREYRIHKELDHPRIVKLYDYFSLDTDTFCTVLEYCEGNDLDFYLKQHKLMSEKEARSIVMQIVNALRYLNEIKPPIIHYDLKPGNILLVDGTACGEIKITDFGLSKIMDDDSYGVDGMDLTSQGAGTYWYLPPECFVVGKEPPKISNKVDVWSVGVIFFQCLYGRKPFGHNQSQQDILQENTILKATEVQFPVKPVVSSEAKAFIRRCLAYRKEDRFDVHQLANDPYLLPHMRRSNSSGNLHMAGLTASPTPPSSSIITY
Put plainly: KinomeScan kinase profiling. Type of data set: binding.
From the text: as §1, §2, §3

Another data set deals with T4, YSK1 (Homo sapiens, UniProt O00506).
T4 construct: host or cells: E. coli host derived from the BL21 strain, infected with T7 phage
Briefly: KinomeScan kinase profiling. In kind it is binding.
From the text: as §1, §2, §3

The target of a further data set is T5, ZAP70 (Homo sapiens, UniProt P43403).
T5 construct: host or cells: E. coli host derived from the BL21 strain, infected with T7 phage
T5 sequence (P43403 whole entry): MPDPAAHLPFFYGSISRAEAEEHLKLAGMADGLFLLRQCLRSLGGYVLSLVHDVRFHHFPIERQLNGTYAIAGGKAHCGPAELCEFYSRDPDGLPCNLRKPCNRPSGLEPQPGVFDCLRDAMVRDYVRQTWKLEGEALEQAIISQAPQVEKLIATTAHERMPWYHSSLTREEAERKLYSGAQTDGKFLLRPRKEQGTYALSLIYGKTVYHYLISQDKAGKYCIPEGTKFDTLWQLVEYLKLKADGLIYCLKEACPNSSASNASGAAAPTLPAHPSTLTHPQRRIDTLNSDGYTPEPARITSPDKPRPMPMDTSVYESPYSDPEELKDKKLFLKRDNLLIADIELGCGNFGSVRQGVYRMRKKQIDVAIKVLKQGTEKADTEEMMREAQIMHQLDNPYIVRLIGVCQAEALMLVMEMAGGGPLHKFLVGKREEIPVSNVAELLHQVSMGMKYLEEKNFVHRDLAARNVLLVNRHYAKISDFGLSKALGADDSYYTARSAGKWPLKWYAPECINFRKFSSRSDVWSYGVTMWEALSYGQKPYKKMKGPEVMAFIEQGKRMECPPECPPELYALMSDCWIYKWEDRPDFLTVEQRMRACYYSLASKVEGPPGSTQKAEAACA
Briefly: KinomeScan kinase profiling. In kind it is binding.
From the text: as §1, §2, §3

The target in a further data set is T6, CDK8 (Homo sapiens, UniProt P49336).
T6 construct: host or cells: T7 phage in E. coli (BL21-derived)
Put plainly: KinomeScan kinase profiling. In kind it is binding.
From the text: as §1, §2, §3

For another data set, the target named is T7, EPHB4 (Homo sapiens, UniProt P54760).
T7 construct: host or cells: E. coli host derived from BL21, T7 phage lysate
Briefly: KinomeScan kinase profiling. In kind it is binding.
From the text: as §1, §2, §3

Another data set concerns the target T8, ABL1 (Y253F) (Homo sapiens, UniProt P00519, Y253F).
T8 construct: host or cells: E. coli host derived from BL21 (T7 phage lysate)
Put plainly: KinomeScan kinase profiling. In kind it is binding.
From the text: as §1, §2, §3

The next data set has as its target T9, JNK1 (Homo sapiens, UniProt P45983).
T9 construct: host or cells: T7 phage in E. coli host derived from BL21
Put plainly: KinomeScan kinase profiling. Type of data set: binding.
From the text: as §1, §2, §3

Data set [1] deals with T10, RPS6KA5 (Kin.Dom.-1-N-terminal) (Homo sapiens, UniProt O75582).
T10 construct: RPS6KA5 (Kin.Dom.-1-N-terminal); host or cells: E. coli host derived from BL21, T7 phage lysate
Briefly: KinomeScan kinase profiling. In kind it is binding.
From the text: as §1, §2, §3

The next data set addresses T11, CHEK1 (Homo sapiens, UniProt O14757).
T11 construct: host or cells: T7 phage in E. coli (BL21-derived)
Briefly: KinomeScan kinase profiling. In kind it is binding.

The target of the next data set is T12, LATS2 (Homo sapiens, UniProt Q9NRM7).
T12 construct: host or cells: T7 phage in E. coli host derived from BL21
T12 sequence (Q9NRM7 whole entry): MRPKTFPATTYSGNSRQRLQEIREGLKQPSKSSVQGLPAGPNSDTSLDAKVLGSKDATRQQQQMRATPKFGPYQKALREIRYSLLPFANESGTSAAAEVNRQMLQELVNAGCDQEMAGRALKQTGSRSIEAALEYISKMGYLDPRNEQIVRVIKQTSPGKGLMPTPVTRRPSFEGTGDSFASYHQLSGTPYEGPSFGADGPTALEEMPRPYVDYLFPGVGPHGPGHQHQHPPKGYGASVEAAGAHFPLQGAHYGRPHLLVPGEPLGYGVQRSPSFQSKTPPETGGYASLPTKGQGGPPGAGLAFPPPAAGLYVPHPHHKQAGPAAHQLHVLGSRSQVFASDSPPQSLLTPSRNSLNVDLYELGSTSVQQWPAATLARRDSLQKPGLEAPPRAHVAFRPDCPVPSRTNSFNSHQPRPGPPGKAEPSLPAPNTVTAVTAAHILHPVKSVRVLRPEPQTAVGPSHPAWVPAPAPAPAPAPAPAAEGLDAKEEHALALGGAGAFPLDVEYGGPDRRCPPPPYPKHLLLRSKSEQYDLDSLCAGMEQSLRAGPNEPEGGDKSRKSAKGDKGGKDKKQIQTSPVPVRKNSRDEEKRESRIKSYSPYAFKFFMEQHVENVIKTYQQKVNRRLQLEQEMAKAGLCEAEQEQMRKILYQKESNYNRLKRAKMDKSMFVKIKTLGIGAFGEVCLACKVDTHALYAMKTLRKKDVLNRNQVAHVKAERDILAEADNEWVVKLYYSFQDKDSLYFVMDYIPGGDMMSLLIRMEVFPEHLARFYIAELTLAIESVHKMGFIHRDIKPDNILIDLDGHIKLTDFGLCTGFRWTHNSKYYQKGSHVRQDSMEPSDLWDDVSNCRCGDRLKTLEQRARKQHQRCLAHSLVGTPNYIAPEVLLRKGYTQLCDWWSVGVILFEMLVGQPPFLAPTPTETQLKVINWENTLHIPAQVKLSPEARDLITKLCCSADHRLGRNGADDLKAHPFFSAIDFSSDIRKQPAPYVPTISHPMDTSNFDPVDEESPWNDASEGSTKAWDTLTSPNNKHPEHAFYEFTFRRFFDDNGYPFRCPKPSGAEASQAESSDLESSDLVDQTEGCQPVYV
Put plainly: KinomeScan kinase profiling. In kind it is binding.

The target in a further data set is T13, PKN1 (Homo sapiens, UniProt Q16512).
T13 construct: purchased Ambit Biosciences Corp (KinomeScan); host or cells: E. coli host derived from BL21, infected with T7 phage
T13 sequence (Q16512 whole entry): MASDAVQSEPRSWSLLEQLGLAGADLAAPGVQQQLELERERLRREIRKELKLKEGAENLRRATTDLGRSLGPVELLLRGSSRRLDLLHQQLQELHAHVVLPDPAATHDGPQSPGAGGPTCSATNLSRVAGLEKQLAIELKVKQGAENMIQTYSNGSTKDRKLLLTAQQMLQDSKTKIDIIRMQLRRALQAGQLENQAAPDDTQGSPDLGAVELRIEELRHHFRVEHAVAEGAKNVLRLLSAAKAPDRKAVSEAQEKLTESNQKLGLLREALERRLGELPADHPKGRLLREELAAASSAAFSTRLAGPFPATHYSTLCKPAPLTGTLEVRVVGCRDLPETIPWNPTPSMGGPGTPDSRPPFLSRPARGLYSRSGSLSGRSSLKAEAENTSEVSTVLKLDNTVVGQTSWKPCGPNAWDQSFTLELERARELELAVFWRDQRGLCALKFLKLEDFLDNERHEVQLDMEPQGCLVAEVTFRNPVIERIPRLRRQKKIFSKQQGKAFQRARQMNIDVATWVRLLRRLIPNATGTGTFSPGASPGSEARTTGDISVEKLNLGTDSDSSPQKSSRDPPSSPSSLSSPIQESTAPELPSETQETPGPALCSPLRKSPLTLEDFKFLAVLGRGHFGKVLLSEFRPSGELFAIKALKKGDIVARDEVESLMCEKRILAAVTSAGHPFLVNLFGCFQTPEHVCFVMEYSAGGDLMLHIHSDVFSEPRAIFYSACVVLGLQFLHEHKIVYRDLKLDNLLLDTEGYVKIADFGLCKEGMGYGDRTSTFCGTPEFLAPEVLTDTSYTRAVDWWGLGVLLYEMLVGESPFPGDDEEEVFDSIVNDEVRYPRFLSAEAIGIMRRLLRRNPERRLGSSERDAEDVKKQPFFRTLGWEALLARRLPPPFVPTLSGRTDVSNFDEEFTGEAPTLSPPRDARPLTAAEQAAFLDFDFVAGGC
Briefly: KinomeScan kinase profiling. Type of data set: binding.

Another data set deals with T14, PAK6 (Homo sapiens, UniProt Q9NQU5).
T14 construct: host or cells: E. coli host derived from the BL21 strain, infected with T7 phage
T14 sequence (Q9NQU5 whole entry): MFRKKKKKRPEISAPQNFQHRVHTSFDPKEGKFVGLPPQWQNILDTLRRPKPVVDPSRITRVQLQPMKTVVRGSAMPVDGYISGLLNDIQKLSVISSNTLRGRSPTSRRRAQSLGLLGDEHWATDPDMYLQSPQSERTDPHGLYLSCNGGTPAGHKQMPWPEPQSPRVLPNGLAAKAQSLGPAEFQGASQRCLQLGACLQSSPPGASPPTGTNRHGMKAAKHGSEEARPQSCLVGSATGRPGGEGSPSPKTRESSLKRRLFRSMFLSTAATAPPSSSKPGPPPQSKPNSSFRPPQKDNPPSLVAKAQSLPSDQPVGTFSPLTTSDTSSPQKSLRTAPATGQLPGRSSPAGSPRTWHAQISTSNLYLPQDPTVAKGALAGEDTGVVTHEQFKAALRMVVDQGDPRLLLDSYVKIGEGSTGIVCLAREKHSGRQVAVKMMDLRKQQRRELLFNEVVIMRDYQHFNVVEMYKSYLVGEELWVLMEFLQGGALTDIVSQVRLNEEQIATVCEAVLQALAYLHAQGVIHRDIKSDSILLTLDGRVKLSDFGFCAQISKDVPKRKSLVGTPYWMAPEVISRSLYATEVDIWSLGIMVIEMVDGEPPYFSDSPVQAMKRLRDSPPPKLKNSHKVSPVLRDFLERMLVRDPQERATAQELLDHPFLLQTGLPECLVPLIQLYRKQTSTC
Put plainly: KinomeScan kinase profiling. In kind it is binding.

The target in a further data set is T15, AKT1 (Homo sapiens, UniProt P31749).
T15 construct: host or cells: E. coli host derived from BL21 (T7 phage lysate)
T15 sequence (P31749 whole entry): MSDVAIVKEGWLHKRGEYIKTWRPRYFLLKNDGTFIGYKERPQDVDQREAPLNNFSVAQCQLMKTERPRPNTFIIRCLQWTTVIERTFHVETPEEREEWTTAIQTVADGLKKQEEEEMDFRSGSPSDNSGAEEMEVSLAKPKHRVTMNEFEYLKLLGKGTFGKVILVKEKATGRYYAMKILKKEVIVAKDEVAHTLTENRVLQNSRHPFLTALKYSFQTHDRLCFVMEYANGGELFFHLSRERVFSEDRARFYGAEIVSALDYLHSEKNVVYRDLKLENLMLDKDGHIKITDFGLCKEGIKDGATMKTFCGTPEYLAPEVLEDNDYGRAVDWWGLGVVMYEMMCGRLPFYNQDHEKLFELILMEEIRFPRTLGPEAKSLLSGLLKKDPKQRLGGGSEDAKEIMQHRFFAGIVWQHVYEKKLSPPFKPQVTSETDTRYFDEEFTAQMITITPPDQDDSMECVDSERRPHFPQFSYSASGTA
Briefly: KinomeScan kinase profiling. Type of data set: binding.

Data set [2] is described as follows: Toxicokinetics in the 30 day repeated dose study in beagle dogs. Type of data set: in vivo. The protocol:
The 30 day repeated dose study employed 12 male and 12 female dogs (Marshall's Farm, China). The dogs were acclimatized for a minimum period of 2 weeks and randomly divided into four main groups (G1-G4), each group comprising of 3 dogs per sex. The animals were dosed orally with capsules of NRC-2694A for a period of 30 consecutive days at dose levels of 10 mg/kg b.wt/day (G2-low dose), 20 mg/kg b.wt/day (G3-mid dose) and 40 mg/kg b.wt/day (G4-high dose). […] The control group (G1-0 mg/kg b. wt/day) animals were dosed by oral capsule with placebo.
The study also tracked body weight (weekly), food consumption (daily), opthalmological status (start and end), hematological and biochemical analyses (start and end), toxicokinetics analysis of plasma (start and end). At the end of the study, all dogs were euthanized by a humane and accepted procedure, subjected to a gross post-mortem examination, organ weights (absolute and relative) were determined, and histopathological examination was carried out.
The toxicokinetic parameters viz.

T9 sequence (P45983 whole entry): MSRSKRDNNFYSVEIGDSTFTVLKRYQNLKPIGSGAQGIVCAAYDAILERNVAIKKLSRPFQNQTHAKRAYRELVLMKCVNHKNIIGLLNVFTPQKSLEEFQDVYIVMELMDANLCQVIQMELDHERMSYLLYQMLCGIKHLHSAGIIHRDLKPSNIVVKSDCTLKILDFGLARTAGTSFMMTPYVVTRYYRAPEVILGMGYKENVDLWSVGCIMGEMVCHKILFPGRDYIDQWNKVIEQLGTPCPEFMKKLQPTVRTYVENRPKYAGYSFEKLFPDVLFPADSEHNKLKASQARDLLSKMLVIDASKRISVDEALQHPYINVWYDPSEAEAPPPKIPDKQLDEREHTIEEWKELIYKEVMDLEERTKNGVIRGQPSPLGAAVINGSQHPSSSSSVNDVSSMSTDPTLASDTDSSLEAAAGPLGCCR

For `C#Cc1cccc(Nc2ncnc3cc(OC)c(OCCCN4CCOCC4)cc23)c1` [NRC-2694, N-(3-ethylnylphenyl)-7-methoxy-6-[3-(4-morpholinyl)propoxy]-4-quinazolinamine], the “% Ctrl @ 10000 nM” value on CDK2 is given as 94 % Ctrl; at GSK3B, 100 % Ctrl; on TLK1, 77 % Ctrl; at YSK1, 69 % Ctrl; at ZAP70, 100 % Ctrl; at CDK8 it was 100 % Ctrl. In addition, the “% Ctrl @ 10000 nM” value was determined as 39 % Ctrl at EPHB4; 23 % Ctrl on ABL1 (Y253F); 99 % Ctrl on JNK1; 85 % Ctrl in data set [1]; 42 % Ctrl on CHEK1; 93 % Ctrl at LATS2. In addition, the “% Ctrl @ 10000 nM” value on PKN1 is 50 % Ctrl; on PAK6 it was 70 % Ctrl; on AKT1 it was 100 % Ctrl.
For the molecule `C#Cc1cccc(Nc2ncnc3cc(OC)c(OCCCN4CCOCC4)cc23)c1.Cl` [NRC-2694 monohydrochloride, N-(3-ethylnylphenyl)-7-methoxy-6-[3-(4-morpholinyl)propoxy]-4-quinazolinamine mono hydrochloride], the “median Tmax” value in data set [2] (day 1, female dogs, 10 mg/kg oral) was 2 h; in data set [2] (day 1, female dogs, 20 mg/kg oral), 4 h; in data set [2] (day 1, female dogs, 40 mg/kg oral), 4 h; in [2] (day 1, male dogs, 10 mg/kg oral), 2 h; in [2] (day 1, male dogs, 20 mg/kg oral), 3 h; in [2] (day 1, male dogs, 40 mg/kg oral) it was 2 h. The “median Tmax” value in data set [2] (day 30, female dogs, 10 mg/kg oral) was 2 h; in data set [2] (day 30, female dogs, 20 mg/kg oral), 4 h; in data set [2] (day 30, male dogs, 10 mg/kg oral) it was 2 h; in data set [2] (day 30, male dogs, 20 mg/kg oral), 3 h. In addition, in [2] (three dose levels, male and female dogs), the “Cmax, dose dependence” value is “dose-dependent change”.
